Reference: patent publication US20190233884A1 (University of Southern California, priority 2016, published 2019)

Test system: patients with refractory metastatic colorectal cancer (mCRC)
Assay: PFS, OS and disease control in the testing (validation) cohort of refractory mCRC patients receiving TAS-102 (n=129, Italy), by baseline characteristics, SNP genotype and toxicity
Type: in vivo, human
Details: validation cohort
Experimental: All patients underwent the treatment in salvage-line setting. […]
(§1) Genomic DNA was extracted from peripheral whole blood in patients of all cohorts using the QIAmp Kit (Qiagen, Valencia, Calif., USA) according to the manufacturer's protocol (www.qiagen.com). The candidate SNPs were genotyped using PCR-based direct DNA sequence analysis by ABI 3100A Capillary Genetic Analyzer and Sequencing Scanner v1.0 (Applied Biosystems). Amplification of extracted DNA was carried out using both forward and reverse primers for each gene polymorphism as shown in Table 1. […] The investigators analyzing SNPs were blinded to the clinical data of the study patients.
The primary endpoint in this study was progression-free survival (PFS), and the secondary endpoints were overall survival (OS) and disease control rate (DCR). PFS was calculated from the date of starting treatment to the first observation of disease progression or death from any cause. If a patient had no disease progression or death, PFS was censored at the date of last follow up. OS was calculated from the date of starting treatment until the date of death from any cause or the date of the last follow-up, at which point OS was censored. The disease control rate (DCR) was defined as the proportion of patients who achieved a stable disease (SD) or […] according to RECISTv1.1. Chi-square test was used to examine the difference in baseline patient characteristics among the three cohorts. Allelic distribution of all SNPs by ethnicity for deviation from Hardy-Weinberg equilibrium and the allelic frequencies of SNPs were tested using the Chi-square tests with one degree of freedom. The associations between candidate SNPs and disease control, and toxicities were examined using contingency tables and Fisher's exact test. The associations of SNPs with PFS and OS were analysed using Kaplan-Meier curves and the log-rank test. Because the true mode of inheritance of candidate SNPs was not established yet, a codominant or dominant genetic model if appropriate was considered.
All patients underwent the treatment in salvage-line setting. […] In all patients, adverse events were graded according to the Common Terminology Criteria for Adverse Events, version 4.0. […]
as §1, with “tested” for “genotyped”, “Biosystems).” for “Biosystems). Amplification of extracted DNA was carried out using both forward and reverse primers for each gene polymorphism as shown in Table 1.”, “data.” for “data of the study patients.”
The primary endpoint in this study was progression-free survival (PFS), and the secondary endpoints were overall survival (OS) and disease control rate (DCR).

[1] = ATM rs609429 C/G vs C/C (Ref.), multivariable
[2] = ATM rs609429 C/G vs C/C (Ref.), univariate
[3] = ATM rs609429 G/G vs C/C (Ref.), multivariable
[4] = ATM rs609429 G/G vs C/C (Ref.), univariate
[5] = Adjuvant Oxa No vs Yes (Ref.), univariate
[6] = Adjuvant history No vs Yes (Ref.), univariate
[7] = Age group ≥61 vs <61 (Ref.), univariate
[8] = BRAF status Mutant vs Wild type (Ref.), univariate
[9] = CHEK2 rs2267130 Any C vs T/T (Ref.), multivariable
[10] = CHEK2 rs2267130 Any C vs T/T (Ref.), univariate
[11] = CHEK2 rs2267130 C/C vs T/T (Ref.), multivariable
[12] = CHEK2 rs2267130 C/C vs T/T (Ref.), univariate
[13] = CHEK2 rs2267130 T/C vs T/T (Ref.), multivariable
[14] = CHEK2 rs2267130 T/C vs T/T (Ref.), univariate
[15] = Grading 3 vs 1-2 (Ref.), univariate
[16] = LN metastasis No vs Yes (Ref.), univariate
[17] = Liver metastasis No vs Yes (Ref.), univariate
[18] = Lung metastasis No vs Yes (Ref.), univariate
[19] = Mucinous histology No vs Yes (Ref.), univariate
[20] = Number of metastases >2 vs ≤2 (Ref.), univariate

Trifluridine/tipiracil [TAS-102]
Disease Control CR/PR/SD, patients n (%) (ATM rs609429 C/G): 20 (32%)
Median PFS (95% CI) (ATM rs609429 C/G): 2.0 (1.9, 2.3) months
PD, patients n (%) (ATM rs609429 C/G): 43 (68%)
HR OS (95% CI) [1]: 0.71 (0.39, 1.30)
HR PFS (95% CI) [1]: 0.77 (0.50, 1.20)
HR OS (95% CI) [2]: 0.71 (0.40, 1.26)
HR PFS (95% CI) [2]: 0.76 (0.50, 1.16)
Disease Control CR/PR/SD, patients n (%) (ATM rs609429 G/G): 6 (40%)
Median OS (95% CI) (ATM rs609429 G/G): 5.8 (2.7, 7.1+) months
Median PFS (95% CI) (ATM rs609429 G/G): 2.0 (1.2, 6.1) months
PD, patients n (%) (ATM rs609429 G/G): 9 (60%)
HR OS (95% CI) [3]: 1.43 (0.56, 3.65)
HR PFS (95% CI) [3]: 1.32 (0.67, 2.59)
HR OS (95% CI) [4]: 0.82 (0.34, 2.00)
HR PFS (95% CI) [4]: 0.85 (0.45, 1.63)
Median OS (Adjuvant Oxa No): 5.8 months
Median PFS (Adjuvant Oxa No): 1.9 months
HR OS [5]: 1.17
HR PFS [5]: 1.06
Median OS (Adjuvant Oxa Yes): 8.5+ months
Median PFS (Adjuvant Oxa Yes): 2.0 months
Median OS (Adjuvant history No): 5.5 months
Median PFS (Adjuvant history No): 1.9 months
HR OS [6]: 1.23
HR PFS [6]: 1.25
Median OS (Adjuvant history Yes): 8.5+ months
Median PFS (Adjuvant history Yes): 2.0 months
Median OS (Age group <61): 4.4 months
Median PFS (Age group <61): 1.9 months
Median OS (Age group ≥61): 9.0 months
Median PFS (Age group ≥61): 2.0 months
HR OS [7]: 0.56
HR PFS [7]: 0.61
Median OS (BRAF status Mutant): 3.3 months
Median PFS (BRAF status Mutant): 1.8 months
HR OS [8]: 2.38
HR PFS [8]: 1.40
Median OS (BRAF status Wild type): 5.8 months
Median PFS (BRAF status Wild type): 2.0 months
Disease Control CR/PR/SD, patients n (%) (CHEK2 rs2267130 Any C): 29 (31%)
Median OS (95% CI) (CHEK2 rs2267130 Any C): 5.5 (4.4, 8.7+) months
Median PFS (95% CI) (CHEK2 rs2267130 Any C): 2.0 (1.8, 2.3) months
PD, patients n (%) (CHEK2 rs2267130 Any C): 65 (69%)
HR OS (95% CI) [9]: 0.70 (0.38, 1.30)
HR PFS (95% CI) [9]: 1.05 (0.66, 1.67)
HR OS (95% CI) [10]: 0.94 (0.52, 1.69)
HR PFS (95% CI) [10]: 1.10 (0.71, 1.72)
Disease Control CR/PR/SD, patients n (%) (CHEK2 rs2267130 C/C): 9 (29%)
Median OS (95% CI) (CHEK2 rs2267130 C/C): 5.4 (3.9, 7.1+) months
Median PFS (95% CI) (CHEK2 rs2267130 C/C): 2.0 (1.8, 2.4) months
PD, patients n (%) (CHEK2 rs2267130 C/C): 22 (71%)
HR OS (95% CI) [11]: 0.48 (0.21, 1.09)
HR PFS (95% CI) [11]: 0.87 (0.49, 1.54)
HR OS (95% CI) [12]: 0.95 (0.45, 2.00)
HR PFS (95% CI) [12]: 1.08 (0.62, 1.86)
Disease Control CR/PR/SD, patients n (%) (CHEK2 rs2267130 T/C): 20 (32%)
Median PFS (95% CI) (CHEK2 rs2267130 T/C): 2.0 (1.7, 2.3) months
PD, patients n (%) (CHEK2 rs2267130 T/C): 43 (68%)
HR OS (95% CI) [13]: 0.83 (0.44, 1.58)
HR PFS (95% CI) [13]: 1.17 (0.72, 1.91)
HR OS (95% CI) [14]: 0.93 (0.50, 1.75)
HR PFS (95% CI) [14]: 1.12 (0.69, 1.79)
Disease Control CR/PR/SD, patients n (%) (CHEK2 rs2267130 T/T): 8 (24%)
Median OS (95% CI) (CHEK2 rs2267130 T/T): 5.8 (3.7, 9.0+) months
Median PFS (95% CI) (CHEK2 rs2267130 T/T): 1.9 (1.9, 2.0) months
PD, patients n (%) (CHEK2 rs2267130 T/T): 26 (76%)
Median OS (Grading 1-2): 9.0 months
Median PFS (Grading 1-2): 2.1 months
Median OS (Grading 3): 5.3 months
Median PFS (Grading 3): 1.9 months
HR OS [15]: 1.38
HR PFS [15]: 1.15
Median OS (LN metastasis No): 5.4 months
Median PFS (LN metastasis No): 2.0 months
HR OS [16]: 1.24
HR PFS [16]: 0.99
Median OS (LN metastasis Yes): 8.8+ months
Median PFS (LN metastasis Yes): 2.0 months
Median OS (Liver metastasis No): 8.7+ months
Median PFS (Liver metastasis No): 2.4 months
HR OS [17]: 0.69
HR PFS [17]: 0.52
Median OS (Liver metastasis Yes): 5.4 months
Median PFS (Liver metastasis Yes): 1.9 months
Median OS (Lung metastasis No): 4.1 months
Median PFS (Lung metastasis No): 1.9 months
HR OS [18]: 1.46
HR PFS [18]: 1.62
Median OS (Lung metastasis Yes): 8.8+ months
Median PFS (Lung metastasis Yes): 2.1 months
Median OS (Mucinous histology No): 9.0 months
Median PFS (Mucinous histology No): 2.0 months
HR OS [19]: 0.72
HR PFS [19]: 0.97
Median OS (Mucinous histology Yes): 5.5 months
Median PFS (Mucinous histology Yes): 1.9 months
Median OS (Number of metastases >2): 8.8+ months
Median PFS (Number of metastases >2): 2.0 months
HR OS [20]: 0.83
HR PFS [20]: 1.18
Median OS (Number of metastases ≤2): 5.5 months
Median PFS (Number of metastases ≤2): 2.0 months
Median OS (Performance status ECOG 0): 9.0 months
Median PFS (Performance status ECOG 0): 2.0 months
Median OS (Performance status ECOG 1+): 4.1 months
Median PFS (Performance status ECOG 1+): 1.9 months
